Source: PubChem BioAssay (NCI)
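Growth conditions: 96-well plates. Treatment: test compound, 48 hours, 5 concentrations. Analysis: linear interpolation between bracketing concentrations; unreached endpoints set to highest concentration. Definition used: TGI = concentration required for complete inhibition of growth.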

Tests used:
Test in all cases: growth of human tumour cells (NCI), 48 h
[1] = system: HOP-62 NSCLC
[2] = system: KM12 colon
[3] = system: MOLT-4 leukemia
[4] = system: TK-10 renal
[5] = system: NCI-H522 lung
[6] = system: ACHN renal
[7] = system: MDA-MB-231 breast
[8] = system: HS 578T breast
[9] = system: RPMI-8226 leukemia
[10] = system: A498 renal
[11] = system: SNB-19 CNS

## N=C1C(=N)c2ccccc2-c2ccccc21.[Cl-].[Ru+2].c1ccc(-c2ccccn2)nc1.c1ccc(-c2ccccn2)nc1
[1]
  TGI: > 100 µM
[2]
  TGI: > 100 µM
[3]
  TGI: > 100 µM
[4]
  TGI: > 100 µM
[5]
  TGI: > 100 µM
[6]
  TGI: > 100 µM

## CC(=O)Nc1ccc2c(C)c3c(nc2n1)[nH]c1ccccc13
[7]
  TGI: > 100 µM
[1]
  TGI: > 100 µM
[8]
  TGI: 70 µM
[2]
  TGI: 47.6 µM
[9]
  TGI: 55.2 µM
[3]
  TGI: 53.6 µM
[10]
  TGI: > 100 µM
[4]
  TGI: > 100 µM
[5]
  TGI: 53.2 µM
[6]
  TGI: 59.6 µM

## Cc1ccc(C)c(NC(=O)C(=O)C(C(=O)c2ccc3ccccc3c2)C2OC(=O)c3ccccc32)c1 (stereo not given)
[1]
  TGI: 62.1 µM
[2]
  TGI: 33.2 µM
[11]
  TGI: 31.2 µM
[9]
  TGI: > 100 µM
[3]
  TGI: > 100 µM
[10]
  TGI: 47.4 µM
[4]
  TGI: 64.6 µM
[5]
  TGI: 22.5 µM
[6]
  TGI: 87.1 µM

## Cc1ccc(C(=N)c2ccccc2Cc2cccc3ccccc23)c2ccccc12
[7]
  TGI: > 100 µM
[1]
  TGI: > 100 µM
[8]
  TGI: > 100 µM
[2]
  TGI: > 100 µM
[11]
  TGI: > 100 µM
[3]
  TGI: > 100 µM
[10]
  TGI: > 100 µM
[4]
  TGI: > 100 µM
[5]
  TGI: > 100 µM
[6]
  TGI: > 100 µM

## C#CCNC(CSSCC(N)C(=O)O)C(=O)O (stereo not given)
[7]
  TGI: > 100 µM
[1]
  TGI: > 100 µM
[8]
  TGI: > 100 µM
[2]
  TGI: > 100 µM
[11]
  TGI: > 100 µM
[9]
  TGI: > 100 µM
[3]
  TGI: > 100 µM
[10]
  TGI: > 100 µM
[4]
  TGI: > 100 µM
[5]
  TGI: > 100 µM
[6]
  TGI: > 100 µM

## COC1CC(N)(c2ccccc2)C(O)C(C)O1 (stereo not given)
[7]
  TGI: > 100 µM
[1]
  TGI: > 100 µM
[8]
  TGI: > 100 µM
[11]
  TGI: > 100 µM
[9]
  TGI: > 100 µM
[3]
  TGI: > 100 µM
[10]
  TGI: > 100 µM
[5]
  TGI: > 100 µM
[6]
  TGI: > 100 µM

## O=C(Nc1ccccc1)N(C1=NCC(CI)S1)c1ccc(F)c(F)c1 (stereo not given)
[7]
  TGI: 83.5 µM
[1]
  TGI: > 100 µM
[8]
  TGI: > 100 µM
[2]
  TGI: > 100 µM
[11]
  TGI: > 100 µM
[9]
  TGI: > 100 µM
[3]
  TGI: 61.4 µM
[10]
  TGI: > 100 µM
[4]
  TGI: > 100 µM
[6]
  TGI: > 100 µM

## Cc1ccc2nc(SCC(=O)N=Nc3c(O)[nH]c4ccccc34)n(-c3ccccc3)c(=O)c2c1
[7]
  TGI: 22.8 µM
[1]
  TGI: 24.6 µM
[8]
  TGI: 46.2 µM
[2]
  TGI: 27.9 µM
[11]
  TGI: 40.6 µM
[9]
  TGI: 35.7 µM
[3]
  TGI: 33.2 µM
[10]
  TGI: 28.1 µM
[4]
  TGI: 29.2 µM
[6]
  TGI: 26.7 µM

## COc1cccc(N2C(=O)CSC2c2cccc(Oc3ccccc3)c2)c1 (stereo not given)
[7]
  TGI: 79.1 µM
[1]
  TGI: > 100 µM
[8]
  TGI: 41.4 µM
[2]
  TGI: > 100 µM
[11]
  TGI: > 100 µM
[3]
  TGI: 28.4 µM
[10]
  TGI: 9.33 µM
[4]
  TGI: 25.3 µM
[5]
  TGI: 20.6 µM
[6]
  TGI: 41 µM

## CC12CCC(CC(=O)/C1=C(/Br)I)C2(C)C (stereo not given)
[7]
  TGI: 17.6 µM
[1]
  TGI: 32.1 µM
[8]
  TGI: 44 µM
[2]
  TGI: 32 µM
[11]
  TGI: 30.7 µM
[9]
  TGI: 26.4 µM
[3]
  TGI: 23.9 µM
[10]
  TGI: 33.7 µM
[4]
  TGI: 32.9 µM
[6]
  TGI: 32.1 µM

## COc1ccc(N2C(=O)C3c4[nH]c5ccc(OCc6ccccc6)cc5c4C4CCC(c5ccccc5)CC4C3C2=O)cc1 (stereo not given)
[7]
  TGI: 27.3 µM
[1]
  TGI: 10.2 µM
[8]
  TGI: 25.8 µM
[2]
  TGI: > 85.7 µM
[11]
  TGI: 40.1 µM
[3]
  TGI: > 36.8 µM
[10]
  TGI: 50.4 µM
[4]
  TGI: 42.2 µM
[5]
  TGI: > 44.6 µM
[6]
  TGI: 41.5 µM
